According to patent publication US9725459B2, “3-oxo-tetrahydro-furo[3,2-B]pyrrol-4(5H)-yl) derivatives I” (GRÜNENTHAL GMBH, priority 2014, dated 2017):
Like-named read-outs stand apart in the source and are kept apart here.

How the values were obtained:
Format in all cases: biochemical
human cathepsin S (CatS) = human cathepsin S (CatS) (Homo sapiens (Human), UniProt P25774); assay: CatS functional enzyme assay; conditions: for Selectivity Ki(hCatS)/Ki(hCatK): ratio Ki(hCatS)/Ki(hCatK); for Ki: read-out: hCatS, Ki; for inhibition at 10 µM: read-out: hCatS, inhibition [%] at 10 μM
human cathepsin S (CatS), sequence (P25774 115-331): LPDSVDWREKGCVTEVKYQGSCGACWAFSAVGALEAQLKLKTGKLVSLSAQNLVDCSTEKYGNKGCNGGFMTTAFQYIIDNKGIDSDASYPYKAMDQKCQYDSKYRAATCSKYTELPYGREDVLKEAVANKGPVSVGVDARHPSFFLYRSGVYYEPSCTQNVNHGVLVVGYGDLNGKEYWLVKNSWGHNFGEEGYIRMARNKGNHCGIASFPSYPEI
Protocol: Reference and test compounds were assayed for inhibitory potency (IC50) against human cathepsins using the following assay setups: Recombinant human cathepsins (CatS, CatK, CatL) were purchased from a Enzo Life Sciences. […] For CatS, the enzyme (0.0007 mU/well) was incubated with fluorogeninc substrate (Z-VVR-AMC, 5 μM) at RT for 10 min. For CatK the enzyme (0.00175 mU/well) was incubated with fluorogeninc substrate (Z-FR-AMC, 40 μM) at RT for 10 min. For CatL, the enzyme (0.000874 mU/well) was incubated with fluorogeninc substrate (Z-VVR-AMC, 40 μM) at RT for 10 min. Flourogenic substrate turnover was detected using a microplate reader (Synergy™ H4, BioTek). Ki values were calculated using the Cheng Prusoff equation (Cheng & Prosoff 1973).

human cathepsin L (CatL) = human cathepsin L (CatL) (Homo sapiens (Human), UniProt P07711); assay: CatL functional enzyme assay; conditions: read-out: hCatL, inhibition [%] at 31.6 μM
human cathepsin L (CatL), sequence (P07711 114-333): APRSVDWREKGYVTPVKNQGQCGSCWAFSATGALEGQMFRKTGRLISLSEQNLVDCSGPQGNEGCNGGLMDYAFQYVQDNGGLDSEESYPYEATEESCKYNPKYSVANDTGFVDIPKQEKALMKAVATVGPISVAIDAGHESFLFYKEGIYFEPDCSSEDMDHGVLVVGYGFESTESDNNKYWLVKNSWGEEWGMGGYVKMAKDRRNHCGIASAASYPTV
Protocol: (§1) Reference and test compounds were assayed for inhibitory potency (IC50) against human cathepsins using the following assay setups:
(§2) Recombinant human cathepsins (CatS, CatK, CatL) were purchased from a Enzo Life Sciences. All assays were carried out in 96-well format using a buffer of 50 mM KH2PO4, 50 mM NaCl, 2 mM EDTA, 0.5 mM DTT and 1% Triton-X-100, pH 6.5 for Cathepsin S and a buffer of 50 mM NaOAc, 10 mM EDTA, 1 mM DTT and 0.01% Triton-X-100, pH 5.5 for CatK/L/B. For CatS, the enzyme (0.0007 mU/well) was incubated with fluorogeninc substrate (Z-VVR-AMC, 5 μM) at RT for 10 min. For CatK the enzyme (0.00175 mU/well) was incubated with fluorogeninc substrate (Z-FR-AMC, 40 μM) at RT for 10 min. For CatL, the enzyme (0.000874 mU/well) was incubated with fluorogeninc substrate (Z-VVR-AMC, 40 μM) at RT for 10 min. Flourogenic substrate turnover was detected using a microplate reader (Synergy™ H4, BioTek). Ki values were calculated using the Cheng Prusoff equation (Cheng & Prosoff 1973).

human cathepsin K (CatK) = human cathepsin K (CatK) (Homo sapiens (Human), UniProt P43235); assay: CatK functional enzyme assay; conditions: for Ki: recombinant human CatK, substrate Z-FR-AMC 40 μM, pH 5.5, Ki by Cheng Prusoff equation, read-out: hCatK, Ki
human cathepsin K (CatK), sequence (P43235 115-329): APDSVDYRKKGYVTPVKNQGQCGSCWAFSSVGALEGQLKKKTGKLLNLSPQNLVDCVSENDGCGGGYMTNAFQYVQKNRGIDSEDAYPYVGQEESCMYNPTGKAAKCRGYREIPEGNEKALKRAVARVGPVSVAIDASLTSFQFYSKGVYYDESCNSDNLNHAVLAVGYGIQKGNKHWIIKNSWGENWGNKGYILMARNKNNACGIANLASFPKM
Protocol: as §1, §2

[1] = recombinant human CatS, substrate Z-VVR-AMC 5 μM, pH 6.5, Ki by Cheng Prusoff equation

Selectivity Ki(hCatS)/Ki(hCatK) (human cathepsin S (CatS)) | Ki (human cathepsin S (CatS)) | inhibition at 31.6 µM (human cathepsin L (CatL)) | Ki (human cathepsin K (CatK)) | Ki (human cathepsin S (CatS); [1]) | inhibition at 10 µM (human cathepsin S (CatS)) | inhibition at 10 µM (human cathepsin K (CatK); read-out: hCatK, inhibition [%] at 10 μM) | Structure (SMILES)
28.7 | 402 nM | 3% | 14 nM | – | – | – | O=C(N[C@H](C(=O)N1C[C@H](Cl)[C@H]2OCC(=O)[C@H]21)C1CCCCC1)c1ccc(-c2ccccn2)s1 [Example 1, N-((S)-2-((3aS,6S,6aS)-6-chloro-3-oxotetrahydro-2H-furo[3,2-b]pyrrol-4(5H)-yl)-1-cyclohexyl-2-oxoethyl)-5-(pyridin-2-yl)thiophene-2-carboxamide]
23.0 | 115 nM | 10% | 5 nM | – | – | – | O=C(N[C@H](C(=O)N1C[C@H](Cl)[C@H]2OCC(=O)[C@H]21)C1CCCCC1)c1ccc(-c2cccnc2)s1 [Example 2, N-((S)-2-((3aS,6S,6aS)-6-chloro-3-oxotetrahydro-2H-furo[3,2-b]pyrrol-4(5H)-yl)-1-cyclohexyl-2-oxoethyl)-5-(pyridin-3-yl)thiophene-2-carboxamide]
34.3 | 103 nM | 5% | 3 nM | – | – | – | O=C(N[C@H](C(=O)N1C[C@H](Cl)[C@H]2OCC(=O)[C@H]21)C1CCCCC1)c1ccc(-c2ccncc2)s1 [Example 3, N-((S)-2-((3aS,6S,6aS)-6-chloro-3-oxotetrahydro-2H-furo[3,2-b]pyrrol-4(5H)-yl)-1-cyclohexyl-2-oxoethyl)-5-(pyridin-4-yl)thiophene-2-carboxamide]
5.5 | – | 36% | 11 nM | 60 nM | – | – | O=C(N[C@H](C(=O)N1C[C@H](Cl)[C@H]2OCC(=O)[C@H]21)C1CCCCC1)c1ccc(-c2cccnn2)s1 [Example 6, N-((S)-2-((3aS,6S,6aS)-6-chloro-3-oxotetrahydro-2H-furo[3,2-b]pyrrol-4(5H)-yl)-1-cyclohexyl-2-oxoethyl)-5-(pyridazin-3-yl)thiophene-2-carboxamide]
81.7 | – | 4% | 18 nM | 1470 nM | – | – | O=C(N[C@H](C(=O)N1C[C@H](Cl)[C@H]2OCC(=O)[C@H]21)C1CCCCC1)c1ccc(-c2ncccn2)s1 [Example 9, N-((S)-2-((3aS,6S,6aS)-6-chloro-3-oxotetrahydro-2H-furo[3,2-b]pyrrol-4(5H)-yl)-1-cyclohexyl-2-oxoethyl)-5-(pyrimidin-2-yl)thiophene-2-carboxamide]
– | – | 21% | – | – | 70% | 88% | Cc1nc(-c2cccnc2)sc1C(=O)N[C@H](C(=O)N1C[C@H](Cl)[C@H]2OCC(=O)[C@H]21)C1CCCCC1 [Example 14, N-((S)-2-((3aS,6S,6aS)-6-chloro-3-oxotetrahydro-2H-furo[3,2-b]pyrrol-4(5H)-yl)-1-cyclohexyl-2-oxoethyl)-4-methyl-2-(pyridin-3-yl)thiazole-5-carboxamide]
7.7 | – | 12% | 25 nM | 193 nM | – | – | O=C(N[C@H](C(=O)N1C[C@H](Cl)[C@H]2OCC(=O)[C@H]21)C1CCCCC1)c1ncc(-c2cccnn2)s1 [Example 15, N-((S)-2-((3aS,6S,6aS)-6-chloro-3-oxotetrahydro-2H-furo[3,2-b]pyrrol-4(5H)-yl)-1-cyclohexyl-2-oxoethyl)-5-(pyridazin-3-yl)thiazole-2-carboxamide]
19.9 | – | 15% | 13 nM | 259 nM | – | – | O=C(N[C@H](C(=O)N1C[C@H](Cl)[C@H]2OCC(=O)[C@H]21)C1CCCCC1)c1ccc(-c2cncc(F)c2)s1 [Example 16, N-((S)-2-((3aS,6S,6aS)-6-chloro-3-oxotetrahydro-2H-furo[3,2-b]pyrrol-4(5H)-yl)-1-cyclohexyl-2-oxoethyl)-5-(5-fluoropyridin-3-yl)thiophene-2-carboxamide]
1.9 | – | 15% | – | – | – | – | O=C(N[C@H](C(=O)N1C[C@H](Cl)[C@H]2OCC(=O)[C@H]21)C1CCCCC1)c1cnc(-c2ccnnc2)o1 [Example 21, N-((S)-2-((3aS,6S,6aS)-6-chloro-3-oxotetrahydro-2H-furo[3,2-b]pyrrol-4(5H)-yl)-1-cyclohexyl-2-oxoethyl)-2-(pyridazin-4-yl)oxazole-5-carboxamide]
2.7 | – | 18% | – | – | – | – | O=C(N[C@H](C(=O)N1C[C@H](Cl)[C@H]2OCC(=O)[C@H]21)C1CCCCC1)c1ccc(-c2ccncn2)o1 [Example 27, N-((S)-2-((3aS,6S,6aS)-6-chloro-3-oxotetrahydro-2H-furo[3,2-b]pyrrol-4(5H)-yl)-1-cyclohexyl-2-oxoethyl)-5-(pyrimidin-4-yl)furan-2-carboxamide]
– | – | 14% | – | – | 83% | – | O=C(N[C@H](C(=O)N1C[C@H](Cl)[C@H]2OCC(=O)[C@H]21)C1CCCCC1)c1nnc(-c2ccncc2)s1 [Example 28, N-((S)-2-((3aS,6S,6aS)-6-chloro-3-oxotetrahydro-2H-furo[3,2-b]pyrrol-4(5H)-yl)-1-cyclohexyl-2-oxoethyl)-5-(pyridin-4-yl)-1,3,4-thiadiazole-2-carboxamide]
26.4 | – | 6% | – | – | – | – | Cc1nccc(-c2ccc(C(=O)N[C@H](C(=O)N3C[C@H](Cl)[C@H]4OCC(=O)[C@H]43)C3CCCCC3)s2)n1 [Example 29, N-((S)-2-((3aS,6S,6aS)-6-chloro-3-oxotetrahydro-2H-furo[3,2-b]pyrrol-4(5H)-yl)-1-cyclohexyl-2-oxoethyl)-5-(2-methylpyrimidin-4-yl)thiophene-2-carboxamide]
21.5 | – | 15% | – | – | – | – | COc1ccc(-c2ccc(C(=O)N[C@H](C(=O)N3C[C@H](Cl)[C@H]4OCC(=O)[C@H]43)C3CCCCC3)s2)nn1 [Example 34, N-((S)-2-((3aS,6S,6aS)-6-chloro-3-oxotetrahydro-2H-furo[3,2-b]pyrrol-4(5H)-yl)-1-cyclohexyl-2-oxoethyl)-5-(6-methoxypyridazin-3-yl)thiophene-2-carboxamide]

Structure (SMILES) | Selectivity Ki(hCatS)/Ki(hCatK) (human cathepsin S (CatS)) | Ki (human cathepsin S (CatS)) | inhibition at 31.6 µM (human cathepsin L (CatL)) | Ki (human cathepsin K (CatK)) | Ki (human cathepsin S (CatS); [1]) | inhibition at 10 µM (human cathepsin S (CatS)) | inhibition at 10 µM (human cathepsin K (CatK); read-out: hCatK, inhibition [%] at 10 μM)
O=C(N[C@H](C(=O)N1C[C@H](Cl)[C@H]2OCC(=O)[C@H]21)C1CCCCC1)c1ccc(-c2cnccn2)s1 [Example 4, N-((S)-2-((3aS,6S,6aS)-6-chloro-3-oxotetrahydro-2H-furo[3,2-b]pyrrol-4(5H)-yl)-1-cyclohexyl-2-oxoethyl)-5-(pyrazin-2-yl)thiophene-2-carboxamide] | 13.1 | 184 nM | 17% | 14 nM | – | – | –
O=C(N[C@H](C(=O)N1C[C@H](Cl)[C@H]2OCC(=O)[C@H]21)C1CCCCC1)c1ccc(-c2cccnc2)o1 [Example 10, N-((S)-2-((3aS,6S,6aS)-6-chloro-3-oxotetrahydro-2H-furo[3,2-b]pyrrol-4(5H)-yl)-1-cyclohexyl-2-oxoethyl)-5-(pyridin-3-yl)furan-2-carboxamide] | 11.3 | – | 16% | – | – | – | –
O=C(N[C@H](C(=O)N1C[C@H](Cl)[C@H]2OCC(=O)[C@H]21)C1CCCCC1)c1ccc(-c2cncnc2)o1 [Example 11, N-((S)-2-((3aS,6S,6aS)-6-chloro-3-oxotetrahydro-2H-furo[3,2-b]pyrrol-4(5H)-yl)-1-cyclohexyl-2-oxoethyl)-5-(pyrimidin-5-yl)furan-2-carboxamide] | 1.1 | – | 14% | 87 nM | 99 nM | – | –
O=C(N[C@H](C(=O)N1C[C@H](Cl)[C@H]2OCC(=O)[C@H]21)C1CCCCC1)c1ccc(-c2ccncc2)o1 [Example 12, N-((S)-2-((3aS,6S,6aS)-6-chloro-3-oxotetrahydro-2H-furo[3,2-b]pyrrol-4(5H)-yl)-1-cyclohexyl-2-oxoethyl)-5-(pyridin-4-yl)furan-2-carboxamide] | 10.4 | – | 18% | 50 nM | 521 nM | – | –
O=C(N[C@H](C(=O)N1C[C@H](Cl)[C@H]2OCC(=O)[C@H]21)C1CCCCC1)c1cnc(-c2cccnc2)s1 [Example 13, N-((S)-2-((3aS,6S,6aS)-6-chloro-3-oxotetrahydro-2H-furo[3,2-b]pyrrol-4(5H)-yl)-1-cyclohexyl-2-oxoethyl)-2-(pyridin-3-yl)thiazole-5-carboxamide] | – | – | 16% | 29 nM | – | 73% | –
